This is an account of results in patent publication US9006246B2, “Tetrahydrocarboline derivative” (Ono Pharmaceutical Co., Ltd., priority 2010, dated 2015).

For orientation: inhibition means the change of the read-out against control, counted positive when it falls. As usually defined, the IC50 is the point on the concentration scale where inhibition reaches its midpoint. A high value points to a need for much substance.

The first assay concerns the target human ENPP2 (Homo sapiens (Human), UniProt Q13822). Kind of assay: Measurement of human ENPP2 inhibitory activity. It is filed as biochemical. The following applies: 1 μM test compound; 16:0-LPC substrate, 37° C., 24 hours; read-out: ENPP2 inhibition rate(%) (1 μM). Here is the method: 10 μL of a test compound solution (10% dimethyl sulfoxide) at each concentration and 40 μL of a 5 μg/mL human ENPP2 solution (buffer A: 100 mmol/L Tris-HCl (pH 9.0), 500 mmol/L NaCl, 5 mmol/L MgCl2, 0.05% Triton X-100) were mixed, 50 μL of a 2 mmol/L 16:0-lysophosphatidylcholine (LPC) solution (buffer A) was further added to react at 37° C. for 24 hours. Subsequently, to 10 μL of the reaction solution was added 90 μL of a measurement buffer (0.5 mmol/L aminoantipyrine, 0.3 mmol/L N-ethyl-N-(2-hydroxy-3-sulfopropyl)-3-methylaniline, 1 U/mL peroxidase, 3 U/mL choline oxidase, 100 mmol/L Tris-HCl (pH 8.5), 5 mmol/L CaCl2) to react at 37° C. for 20 minutes, and spectrophotometric determination was performed at 555 nm.
Using a standard curve, a choline production amount (enzyme activity) in each test compound was calculated, and the inhibitory activity rate of each test compound was calculated, wherein the enzyme activity in a positive control to which a test compound is not added, was a 0% inhibition rate, and the enzyme activity in a negative control to which a test compound and human ENPP2 are not added, were 100% inhibition. Further, concerning the present compounds shown in Table 3, an IC50 value was calculated from inhibitory activity rate at each concentration.
For `O=C(CC12CCC(C(=O)O)(CC1)C2)N1CCc2c(n(Cc3ccc(F)cc3F)c3ncccc23)C1` [Example 31(182), 4-{2-[9-(2,4-difluorobenzyl)-5,6,8,9-tetrahydro-7H-pyrido[4′,3′:4,5]pyrrolo[2,3-b]pyridin-7-yl]-2-oxoethyl}bicyclo[2.2.1]heptane-1-carboxylic acid], the inhibition at 1 µM is 98.9%. Turning to `O=C(CC12CCC(C(=O)O)(CC1)C2)N1CCc2c(n(Cc3ccc(Cl)cc3)c3ncccc23)C1` [Example 31(189), 4-{2-[9-(4-chlorobenzyl)-5,6,8,9-tetrahydro-7H-pyrido[4′,3′:4,5]pyrrolo[2,3-b]pyridin-7-yl]-2-oxoethyl}bicyclo[2.2.1]heptane-1-carboxylic acid], the inhibition at 1 µM was 99.3%. For the compound `CC1(C)[C@@H](CC(=O)N2CCc3c(n(Cc4ccc(Cl)cc4F)c4ncccc34)C2)CC[C@@]1(C)C(=O)O` [Example 31(160), (1R,3R)-3-{2-[9-(4-chloro-2-fluorobenzyl)-5,6,8,9-tetrahydro-7H-pyrido[4′,3′:4,5]pyrrolo[2,3-b]pyridin-7-yl]-2-oxoethyl}-1,2,2-trimethylcyclopentanecarboxylic acid], the inhibition at 1 µM stood at 99.5%.

Consider `O=C(O)CCCCC(=O)N1CCc2c(n(Cc3cccs3)c3ncccc23)C1` [Example 9(59), 6-oxo-6-[9-(2-thienylmethyl)-5,6,8,9-tetrahydro-7H-pyrido[4′,3′:4,5]pyrrolo[2,3-b]pyridin-7-yl]hexanoic acid], for which the inhibition at 1 µM was determined as 69.3%. On the same count and under the same terms, next, `COc1cc(CC(=O)N2CCc3c(n(Cc4cc(F)c(F)cc4F)c4ncccc34)C2)ccc1C(=O)O` [Example 51(24), 2-methoxy-4-{2-oxo-2-[9-(2,4,5-trifluorobenzyl)-5,6,8,9-tetrahydro-7H-pyrido[4′,3′:4,5]pyrrolo[2,3-b]pyridin-7-yl]ethyl}benzoic acid]: 97.5%; `O=C(C[C@H]1CC[C@H](C(=O)O)CC1)N1CCc2c(n(Cc3ccc(F)cc3F)c3ncccc23)C1` [Example 31(32), trans-4-{2-[9-(2,4-difluorobenzyl)-5,6,8,9-tetrahydro-7H-pyrido[4′,3′:4,5]pyrrolo[2,3-b]pyridin-7-yl]-2-oxoethyl}cyclohexanecarboxylic acid]: 98.2%; `CC1CN(C(=O)CCCC(C)(C)C(=O)O)Cc2c1c1cccnc1n2Cc1cccc(F)c1` (stereo not shown) [Example 23, 6-[9-(3-fluorobenzyl)-5-methyl-5,6,8,9-tetrahydro-7H-pyrido[4′,3′:4,5]pyrrolo[2,3-b]pyridin-7-yl]-2,2-dimethyl-6-oxohexanoic acid]: 96.2%.

Turning to `CC(C)(OCC(=O)N1CCc2c(n(Cc3cccc(F)c3)c3ncccc23)C1)C(=O)O` [Example 18(1), 2-{2-[9-(3-fluorobenzyl)-5,6,8,9-tetrahydro-7H-pyrido[4′,3′:4,5]pyrrolo[2,3-b]pyridin-7-yl]-2-oxoethoxy}-2-methylpropanoic acid], the inhibition at 1 µM was 89.6%. For `O=C(O)CCCCC(=O)N1CCc2c(n(CCSc3ccccc3)c3ncccc23)C1` [Example 9(31), 6-oxo-6-{9-[2-(phenylthio)ethyl]-5,6,8,9-tetrahydro-7H-pyrido[4′,3′:4,5]pyrrolo[2,3-b]pyridin-7-yl}hexanoic acid], the inhibition at 1 µM was 82.4%.

Turning to `O=C(CC12CCC(C(=O)O)(CC1)C2)N1CCc2c(n(Cc3ccc(F)cc3)c3ncccc23)C1` [Example 31(188), 4-{2-[9-(4-fluorobenzyl)-5,6,8,9-tetrahydro-7H-pyrido[4′,3′:4,5]pyrrolo[2,3-b]pyridin-7-yl]-2-oxoethyl}bicyclo[2.2.1]heptane-1-carboxylic acid], the inhibition at 1 µM is 98.8%. Take `O=C(C[C@H]1CC[C@H](C(=O)O)CC1)N1CCc2c(n(Cc3ccc(Cl)cc3)c3ncccc23)C1` [Example 31(34), trans-4-{2-[9-(4-chlorobenzyl)-5,6,8,9-tetrahydro-7H-pyrido[4′,3′:4,5]pyrrolo[2,3-b]pyridin-7-yl]-2-oxoethyl}cyclohexanecarboxylic acid]: the inhibition at 1 µM came out at 98.6%. On to `O=C(O)CCCCC(=O)N1CCc2c(n(CCOc3ccccc3)c3ncccc23)C1` [Example 9(28), 6-oxo-6-[9-(2-phenoxyethyl)-5,6,8,9-tetrahydro-7H-pyrido[4′,3′:4,5]pyrrolo[2,3-b]pyridin-7-yl]hexanoic acid], for which the inhibition at 1 µM was 76.6%.

The assay is the same for the next values; noted with them: 16:0-LPC substrate, 37° C., 24 hours.
`O=C(O)CCCCC(=O)N1CCc2c(n(CCCc3ccccc3)c3ccccc23)C1` [Example 3, 6-oxo-6-[9-(3-phenylpropyl)-1,3,4,9-tetrahydro-2H-beta-carbolin-2-yl]hexanoic acid] had an IC50 of 34 nM. With `C[C@]1(C(=O)O)CC[C@H](CC(=O)N2CCc3c(n(Cc4ccc(F)cc4)c4ncccc34)C2)CC1` [Example 48(8), trans-4-{2-[9-(4-fluorobenzyl)-5,6,8,9-tetrahydro-7H-pyrido[4′,3′:4,5]pyrrolo[2,3-b]pyridin-7-yl]-2-oxoethyl}-1-methylcyclohexanecarboxylic acid], the IC50 stood at 26 nM. On the same count and under the same terms, to `O=C(O)CCCCC(=O)N1CCc2c(n(CCC3CCCCC3)c3ncccc23)C1` [Example 9(2), 6-[9-(2-cyclohexylethyl)-5,6,8,9-tetrahydro-7H-pyrido[4′,3′:4,5]pyrrolo[2,3-b]pyridin-7-yl]-6-oxohexanoic acid] belongs 16 nM; to `CC(C)(CCCC(=O)N1CCc2c(n(Cc3ccc(Cl)s3)c3ncccc23)C1)C(=O)O` [Example 12(42), 6-{9-[(5-chloro-2-thienyl)methyl]-5,6,8,9-tetrahydro-7H-pyrido[4′,3′:4,5]pyrrolo[2,3-b]pyridin-7-yl}-2,2-dimethyl-6-oxohexanoic acid], 9.6 nM; to `O=C(C[C@H]1CC[C@H](C(=O)O)CC1)N1CCc2c(n(Cc3ccc(Cl)cc3F)c3ncccc23)C1` [Example 31(24), trans-4-{2-[9-(4-chloro-2-fluorobenzyl)-5,6,8,9-tetrahydro-7H-pyrido[4′,3′:4,5]pyrrolo[2,3-b]pyridin-7-yl]-2-oxoethyl}cyclohexanecarboxylic acid], 5 nM.

Another assay relates to SD male rat. Description: Measurement of urethra internal pressure in rat under anesthesia. It is filed as in vivo. The following applies: rat under urethane anesthesia; intravenous 0.03, 0.1, 0.3 mg/kg; FIG. 2. An excerpt:
A SD male rat (Crl: CD(SD), Charles River Laboratories Japan, Inc., 7-10 weeks old) was anesthetized by subcutaneous administration of 1.5 g/kg urethane at a back of a neck. After neck median incision, a jugular vein catheter for intravenous administration was inserted. A lower abdominal part was median incised, and a urethra was ligated at around pubis. A urethral catheter for measuring a urethra internal pressure, equipped with a collar at a tip and filled with a physiological saline was inserted into a urethra through an incised bladder top, and ligation-fixed at a bladder neck part. The urethral catheter was connected to a pressure transducer (manufactured by Nihon Kohden Corporation), and a urethra internal pressure was measured. […] A urethra internal pressure reduction rate (%) was calculated based on a urethra internal pressure after compound administration, wherein a value obtained by subtracting a postmortem baseline value (minimum value of urethra internal pressure for 10 minutes after administration of somnopentyl) from a urethra internal pressure value before compound administration (0 minute) was 100%.
Regarding `O=C(C[C@H]1CC[C@H](C(=O)O)CC1)N1CCc2c(n(Cc3ccc(Cl)cc3F)c3ncccc23)C1` [Example 31(24), trans-4-{2-[9-(4-chloro-2-fluorobenzyl)-5,6,8,9-tetrahydro-7H-pyrido[4′,3′:4,5]pyrrolo[2,3-b]pyridin-7-yl]-2-oxoethyl}cyclohexanecarboxylic acid], the urethra internal pressure entry was “significantly reduced a urethra internal pressure”.

Staying with this assay, now noted: rat under urethane anesthesia; intravenous 0.1, 0.3, 1.0 mg/kg; FIG. 1.
Turning to `O=C(O)CCCCC(=O)N1CCc2c(n(CCCc3ccccc3)c3ccccc23)C1` [Example 3, 6-oxo-6-[9-(3-phenylpropyl)-1,3,4,9-tetrahydro-2H-beta-carbolin-2-yl]hexanoic acid], the urethra internal pressure entry is given as “significantly reduced a urethra internal pressure”.
